Assay results reported in patent publication EP1019392B1, “TRICYCLIC AMIDES USEFUL FOR INHIBITION OF G-PROTEIN FUNCTION AND FOR TREATMENT OF PROLIFERATIVE DISEASES” (SCHERING CORPORATION, priority 1995, dated 1997).

What was measured:
Human tumor cells = test: Soft Agar Assay (anchorage-independent growth); type: cell-based; conditions: range over 19 tumor cell lines (K ras NIH 3T3, H ras NIH 3T3, HTB 177, HTB 173, A549, HTB 175, HTB 119, HTB 183, HPAF II, MCF-7, HBL100, Du4475, MDA MB 468, DU 145, MDA MB453, BT474, PC3, DLD I, AsPc-1), read-out: IC50 for each cell line
[1] = tested on: DLD-1-BAG human colon carcinoma cells expressing as activated K-ras gene; test: Cell Mat Assay, DLD-1 tumor cells; type: cell-based; conditions: Homo sapiens, DLD-1, Mat assay
[2] = tested on: Normal human HEPM fibroblasts; test: Cell Mat Assay, normal cell mat; type: cell-based; conditions: normal monolayer
[3] = tested on: Ras-CVLS processing in COS monkey kidney cells; test: COS cell assay: inhibition of Ras-CVLS processing (Western blot); type: cell-based; conditions: Primates, COS
[4] = tested on: SW620-BAG human colon carcinoma cells expressing an activated K-ras gene; test: Cell Mat Assay, SW620 tumor cells; type: cell-based; conditions: Homo sapiens, SW-620, Mat assay
[5] = tested on: T24-BAG4 human bladder carcinoma cells expressing an activated H-ras gene; test: Cell Mat Assay, T24 tumor cells; type: cell-based; conditions: Homo sapiens, read-out: Tumor (T-24) IC50
[6] = tested on: DLD-1 (human colon carcinoma cells, ATCC # CCL 221); test: In Vivo Anti-Tumor Studies, subcutaneous DLD-1 tumors; set-up: species or system athymic nu/nu female mice; conditions: Mus musculus, DLD-1, po, QID, 4 weeks, range over the listed compounds
Source text: Tumor cells (5 X 10^5 to 8 X 10^6) of DLD-1 (human colon carcinoma cells, ATCC # CCL 221) are innolculated subcutaneously into the flank of 5-6 week o;d athymic nu/nu female mice.

`NC(=O)N1CCC(CC(=O)N2CCC(C3c4ncc(Br)cc4CCc4cc(Cl)cc(Br)c43)CC2)CC1` (centres unmarked) [Example 10] was tested, and the IC50 (Human tumor cells) was 40 to 3000 nM, the IC50 [1] was less than 1600 nM and the IC50 [2] was greater than 25000 nM. It also gave an IC50 [3] of less than 25 nM, an IC50 [4] of 3100 nM and an IC50 [5] of less than 1600 nM. For the same molecule, the inhibition in vivo at 10 mg/kg ([6]; 10 mg/kg p.o.) was 7 to 50% and the inhibition in vivo at 50 mg/kg ([6]; 50 mg/kg p.o.) was 35.4 to 83%.
